Laboratory results reported in the supplement of paper PMC4862054.

Experiments:
Conditions in all cases: incubation time: 72 h
[1] = test system: BT-474; assay: normalised response (% of control), CellTox Green; higher = less cell death (100 = DMSO, 0 = benzethonium chloride kill control)
Outline: (§1)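 Each entry is the normalised signal at a single concentration within a series. The series comprised 5 concentrations in 10-fold steps over a compound-specific 10,000-fold range, placed in 384-well plates into which breast cancer cell lines were seeded as 20 µl suspension and incubated 72 h. CellTox Green (485/520 nm) fluorescence and then CellTiter-Glo luminescence were read, with signals normalised per plate to 0.1 % DMSO (100) and a positive kill control (0).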

[2] = test system: BT-549; assay: as above
Outline: as §1

[3] = test system: CAL-120; assay: as above
Outline: as §1

[4] = test system: CAL-148; assay: as above
Outline: as §1

[5] = test system: CAL-51; assay: as above
Outline: as §1

[6] = test system: CAL-85-1; assay: as above
Outline: as §1

[7] = test system: DU-4475; assay: as above
Outline: as §1

[8] = test system: HCC1143; assay: as above
Outline: as §1

[9] = test system: HCC1599; assay: as above
Outline: as §1

[10] = test system: HDQ-P1; assay: as above
Outline: as §1

[11] = test system: Hs578T; assay: as above
Outline: as §1

[12] = test system: MCF-10A; assay: as above
Outline: as §1

[13] = test system: MDA-MB-231; assay: as above
Outline: as §1

[14] = test system: MDA-MB-436; assay: as above
Outline: as §1

[15] = test system: MDA-MB-453; assay: as above
Outline: as §1

[16] = test system: MDA-MB-468; assay: as above
Outline: as §1

[17] = test system: MFM-223; assay: as above
Outline: as §1

[18] = test system: BT-474; assay: normalised response (% of control), CellTiter-Glo; higher = more viable cells (100 = DMSO, 0 = benzethonium chloride kill control)
Outline: as §1

[19] = test system: BT-549; assay: as above
Outline: as §1

[20] = test system: CAL-120; assay: as above
Outline: as §1

[21] = test system: CAL-148; assay: as above
Outline: as §1

[22] = test system: CAL-51; assay: as above
Outline: as §1

[23] = test system: CAL-85-1; assay: as above
Outline: as §1

[24] = test system: DU-4475; assay: as above
Outline: as §1

[25] = test system: HCC1143; assay: as above
Outline: as §1

[26] = test system: HCC1599; assay: as above
Outline: as §1

[27] = test system: HCC1937; assay: as above
Outline: as §1

[28] = test system: HDQ-P1; assay: as above
Outline: as §1

[29] = test system: Hs578T; assay: as above
Outline: as §1

[30] = test system: MCF-10A; assay: as above
Outline: as §1

[31] = test system: MDA-MB-231; assay: as above
Outline: as §1

[32] = test system: MDA-MB-436; assay: as above
Outline: as §1

[33] = test system: MDA-MB-453; assay: as above
Outline: as §1

[34] = test system: MDA-MB-468; assay: as above
Outline: as §1

[35] = test system: MFM-223; assay: as above
Outline: as §1

[36] = test system: SK-BR-3; assay: as above
Outline: as §1

[37] = test system: HCC1937; assay: normalised response (% of control), CellTox Green; higher = less cell death (100 = DMSO, 0 = benzethonium chloride kill control)
Outline: as §1

SMILES	normalised response [1]	normalised response [2]	normalised response [3]	normalised response [4]	normalised response [5]	normalised response [6]	normalised response [7]	normalised response [8]	normalised response [9]	normalised response [10]	normalised response [11]	normalised response [12]	normalised response [13]	normalised response [14]	normalised response [15]	normalised response [16]	normalised response [17]	normalised response [18]	normalised response [19]	normalised response [20]	normalised response [21]	normalised response [22]	normalised response [23]	normalised response [24]	normalised response [25]	normalised response [26]	normalised response [27]	normalised response [28]	normalised response [29]	normalised response [30]	normalised response [31]	normalised response [32]	normalised response [33]	normalised response [34]	normalised response [35]	normalised response [36]	normalised response [37]
Cc1ccc(C(=O)N(CCCN)[C@@H](c2oc3cc(Cl)ccc3c(=O)c2Cc2ccccc2)C(C)C)cc1 (10 nM)	89.8%	88%	95.5%	90.8%	108%	108%	104%	112%	91.8%	85.7%	103%	112%	94.4%	100%	102%	111%	101%	97.9%	100%	102%	91.3%	120%	101%	96.5%	97.1%	100%	101%	103%	97.5%	103%	98.8%	107%	94.8%	90.7%	90.2%	92.5%	
O=C(O)c1ccc(-c2c[nH]c3ncc(-c4ccccc4)cc23)cc1C1CCCC1 (1000 nM)	95.8%	92.9%	98.4%		93.6%	108%	96.3%	96.2%	90.9%	109%	92.2%	103%	86.1%	85.1%	96.7%		93.1%	89.9%	100%	102%	95.6%	105%	99.2%	91.4%	101%	102%	97%	105%	94.1%	100%	92.4%	103%	96.8%	93.6%	95.6%	90.2%	100%
C[C@@H](Oc1cc(-c2cnn(C3CCNCC3)c2)cnc1N)c1c(Cl)ccc(F)c1Cl [Crizotinib] (100 nM)	104%	140%	104%	106%	111%	93.4%	105%	114%	104%	95.8%		105%	123%	80.2%	90.9%	122%	99.2%	102%	90.4%	100%	95.6%	104%	116%	99.2%	100%	114%	98.5%	98.8%	99.7%	107%	98.6%	102%	91.7%	96.1%	97.1%	92.4%	79.2%
C[C@]12CC[C@@H]3c4ccc(O)cc4C[C@@H](CCCCCCCCC[S+]([O-])CCCC(F)(F)C(F)(F)F)[C@H]3[C@@H]1CC[C@@H]2O (stereo partly drawn) [Fulvestrant] (100 nM)	102%	106%	100%	100%	113%	108%	101%	111%	101%		103%	105%	114%	108%	87.5%		90.7%	104%	108%	100%	97.4%	114%	99.1%	104%	99.3%	110%	105%	104%	106%	109%	104%	108%	109%	104%	103%	107%	106%
CCCCCCCCCCCCCCCCCCOP(=O)([O-])OC1CC[N+](C)(C)CC1 [Perifosine] (250 nM)	100%	88.6%	106%	93.9%	110%	107%	101%	118%	97.8%	115%	97.2%	102%	79.8%	94.7%	104%		59.2%	102%	97%	104%	97.7%	116%	95.4%	96.5%	104%	101%	101%	105%	104%	110%	102%	99.3%	98.2%	99.7%	93.7%	97.7%	107%
CCC(C)(C)C(=O)O[C@H]1C[C@@H](C)C=C2C=C[C@H](C)[C@H](CC[C@@H]3C[C@@H](O)CC(=O)O3)[C@H]21 [Simvastatin] (1000 nM)	94.2%	94.5%	102%	102%	111%	97.2%		115%	95.7%	81.5%	77.5%	93.2%	86.9%	106%	106%		100%	75%	93.6%	96.7%	104%	109%	96.6%		96.3%	102%	98.4%	92.6%	92.9%	111%	81.6%	98.9%	102%		98.9%	106%	78.2%
CC(=O)Nc1ccc(C(=O)Nc2ccccc2N)cc1 [Tacedinaline] (100 nM)	99.1%	117%	101%	105%	103%	107%	99.2%	110%	97.4%	76.9%	92.4%		108%	110%	105%		101%	105%	106%	99.2%	97.2%	114%	101%	93.6%	97.1%	126%	102%	100%	98.4%	93.7%	102%	102%	102%	109%	106%	95.4%	115%
O=C(CCCCCCC(=O)Nc1ccc([C@H]2O[C@@H](CSc3nc(-c4ccccc4)c(-c4ccccc4)o3)C[C@@H](c3ccc(CO)cc3)O2)cc1)NO [Tubacin] (1 nM)																		94.2%	100%	96.1%	97.6%	119%	92.4%	100%	98.9%	93.5%	93.3%	94.6%	100%	92.8%	97.5%	82.1%	103%	91.5%	96.8%	101%	
O=C(CCCCCCC(=O)Nc1ccc([C@H]2O[C@@H](CSc3nc(-c4ccccc4)c(-c4ccccc4)o3)C[C@@H](c3ccc(CO)cc3)O2)cc1)NO [Tubacin] (10 nM)																		93.5%	101%	95.8%	100%	110%	103%	101%	103%	95.3%	93.1%	93%	104%	99.1%	94.4%	96%	97.2%	91.2%	97.9%	95.2%	
Oc1nc(-c2ccc(C(F)(F)F)cc2)nc2c1CSCC2 [XAV-939] (10 nM)																		102%	98.6%	93.8%	101%	78.4%	98.7%	104%	99.8%	108%	101%	97.8%	102%	105%	95.4%	99.9%	106%	92.9%	98.9%	117%	
